Measurements: article PMC9029538, “Dosing Colistimethate Every 8 h Results in Higher Plasma Concentrations of Active Colistin Than Every 12-Hourly Dosing without Increase in Nephrotoxicity: A Phase 1 Pharmacokinetics Trial in Healthy Adult Volunteers” (Antibiotics, 2022)

How the values were obtained:
[1] = Treatment-emergent adverse events, safety population; format: in vivo, healthy adult volunteers; conditions: for Ataxia / Blood creatinine increased / Dizziness / Glycosuria / Proteinuria / Red blood cells urine / Renal and urinary disorders / White blood cells urine positive / Blood calcium decreased / Headache / Investigations / Lymphocyte count decreased / Nervous system disorders / Number of Subjects with at Least One Adverse Event / Paresthesia / Prothrombin time prolonged / Respiratory, thoracic and mediastinal disorders / Cough: TEAE, subjects n (%)
Protocol: (§1) Safety assessments for TEAEs were conducted, including physical examinations (including neurological evaluations), […], vital signs, clinical laboratory tests, selected biomarkers for acute kidney injury (see section on kidney biomarkers), spirometry, and ECG measurements (see Supplementary Data S5 and S6 for clinical laboratory evaluations and schedule of events). If symptoms of ataxia were present, SARA (Scale for the Assessment and Rating of Ataxia, according to Schmitz-Hübsch et al.) assessment forms were completed to assess their severity.

[2] = Neurotoxicity (paresthesias, ataxia, SARA scores); format: in vivo, healthy adult volunteers; design: key to SARA score: Nose–finger—right / SARA score: Nose–finger—left: 0: no tremor; 0.5: tremor with an amplitude < 2 cm (unilateral); 1: tremor with an amplitude < 2 cm (bilateral); key to SARA score: Fast alternating hand movements—right / SARA score: Fast alternating hand movements—left / SARA score: Heel–shin slide—right / SARA score: Heel–shin slide—left / SARA score: Sitting / SARA score: Speech disturbance: 0: normal; key to SARA score: Finger chase—right / SARA score: Finger chase—left: 0: normal, no dysmetria; 0.5: dysmetria, under/overshooting target < 5 cm (unilateral); 1: dysmetria, under/overshooting target < 5 cm (bilateral); key to Cumulative SARA Score / SARA score: Gait / SARA score: Stance: normal, able to stand in tandem for >10s; able to stand with feet together without sway, but not in tandem for >10s; 2: able to stand with feet together for >10s, but only with sway; conditions: for Cumulative SARA Score / SARA score: Fast alternating hand movements—left / SARA score: Fast alternating hand movements—right / SARA score: Finger chase—left / SARA score: Finger chase—right / SARA score: Gait / SARA score: Heel–shin slide—left / SARA score: Heel–shin slide—right / SARA score: Nose–finger—left / SARA score: Nose–finger—right / SARA score: Sitting / SARA score: Speech disturbance / SARA score: Stance: highest score for any visit
Protocol: as §1

colistimethate sodium [CMS]
Ataxia ([1]; Cohort 1 (N = 9)): 0
Blood creatinine increased ([1]; Cohort 1 (N = 9)): 0
Dizziness ([1]; Cohort 1 (N = 9)): 0
Glycosuria ([1]; Cohort 1 (N = 9)): 0
Proteinuria ([1]; Cohort 1 (N = 9)): 1 (11.1%)
Red blood cells urine ([1]; Cohort 1 (N = 9)): 0
Renal and urinary disorders ([1]; Cohort 1 (N = 9)): 1 (11.1%)
White blood cells urine positive ([1]; Cohort 1 (N = 9)): 0
Blood calcium decreased ([1]; Cohort 2 (N = 10)): 0
Blood creatinine increased ([1]; Cohort 2 (N = 10)): 1 (10.0%)
Glycosuria ([1]; Cohort 2 (N = 10)): 0
Headache ([1]; Cohort 2 (N = 10)): 5 (50.0%)
Investigations ([1]; Cohort 2 (N = 10)): 6 (60.0%)
Lymphocyte count decreased ([1]; Cohort 2 (N = 10)): 1 (10.0%)
Nervous system disorders ([1]; Cohort 2 (N = 10)): 10 (100.0%)
Number of Subjects with at Least One Adverse Event ([1]; Cohort 2 (N = 10)): 10 (100.0%)
Paresthesia ([1]; Cohort 2 (N = 10)): 10 (100.0%)
Prothrombin time prolonged ([1]; Cohort 2 (N = 10)): 3 (30.0%)
Red blood cells urine ([1]; Cohort 2 (N = 10)): 1 (10.0%)
Respiratory, thoracic and mediastinal disorders ([1]; Cohort 2 (N = 10)): 3 (30.0%)
Ataxia ([1]; Cohort 3 (N = 12)): 10 (83.3%)
Blood calcium decreased ([1]; Cohort 3 (N = 12)): 4 (33.3%)
Cough ([1]; Cohort 3 (N = 12)): 2 (16.7%)
Dizziness ([1]; Cohort 3 (N = 12)): 2 (16.7%)
Headache ([1]; Cohort 3 (N = 12)): 4 (33.3%)
Investigations ([1]; Cohort 3 (N = 12)): 11 (91.7%)
Lymphocyte count decreased ([1]; Cohort 3 (N = 12)): 1 (8.3%)
Nervous system disorders ([1]; Cohort 3 (N = 12)): 11 (91.7%)
Number of Subjects with at Least One Adverse Event ([1]; Cohort 3 (N = 12)): 11 (91.7%)
Paresthesia ([1]; Cohort 3 (N = 12)): 9 (75.0%)
Proteinuria ([1]; Cohort 3 (N = 12)): 7 (58.3%)
Prothrombin time prolonged ([1]; Cohort 3 (N = 12)): 1 (8.3%)
Renal and urinary disorders ([1]; Cohort 3 (N = 12)): 7 (58.3%)
Respiratory, thoracic and mediastinal disorders ([1]; Cohort 3 (N = 12)): 2 (16.7%)
White blood cells urine positive ([1]; Cohort 3 (N = 12)): 7 (58.3%)
Ataxia ([1]; Overall (N = 31)): 17 (54.8%)
Blood calcium decreased ([1]; Overall (N = 31)): 6 (19.4%)
Blood creatinine increased ([1]; Overall (N = 31)): 5 (16.1%)
Cough ([1]; Overall (N = 31)): 6 (19.4%)
Dizziness ([1]; Overall (N = 31)): 5 (16.1%)
Glycosuria ([1]; Overall (N = 31)): 5 (16.1%)
Headache ([1]; Overall (N = 31)): 14 (45.2%)
Investigations ([1]; Overall (N = 31)): 24 (77.4%)
Lymphocyte count decreased ([1]; Overall (N = 31)): 4 (12.9%)
Nervous system disorders ([1]; Overall (N = 31)): 27 (87.1%)
Number of Subjects with at Least One Adverse Event ([1]; Overall (N = 31)): 30 (96.8%)
Paresthesia ([1]; Overall (N = 31)): 24 (77.4%)
Proteinuria ([1]; Overall (N = 31)): 10 (32.3%)
Prothrombin time prolonged ([1]; Overall (N = 31)): 7 (22.6%)
Red blood cells urine ([1]; Overall (N = 31)): 4 (12.9%)
Renal and urinary disorders ([1]; Overall (N = 31)): 10 (32.3%)
Respiratory, thoracic and mediastinal disorders ([1]; Overall (N = 31)): 8 (25.8%)
White blood cells urine positive ([1]; Overall (N = 31)): 9 (29.0%)
AEs that occurred during Period 1 ([1]; Period 1 (IV), of all AEs): 138/287
total AEs reported ([1]; overall): 287
serious TEAE ([1]; resulted in discontinuation of the subject): one serious TEAE of acute kidney injury
deaths ([1]; whole study): no deaths
ataxia reported ([2]; Cohort 1): no ataxia
Cumulative SARA Score ([2]; subject 20012078): 1
SARA score: Fast alternating hand movements—left ([2]; subject 20012078): 0
SARA score: Fast alternating hand movements—right ([2]; subject 20012078): 0
SARA score: Finger chase—left ([2]; subject 20012078): 0
SARA score: Finger chase—right ([2]; subject 20012078): 0
SARA score: Gait ([2]; subject 20012078): 1
SARA score: Heel–shin slide—left ([2]; subject 20012078): 0
SARA score: Heel–shin slide—right ([2]; subject 20012078): 0
SARA score: Nose–finger—left ([2]; subject 20012078): 0
SARA score: Nose–finger—right ([2]; subject 20012078): 0
SARA score: Sitting ([2]; subject 20012078): 0
SARA score: Speech disturbance ([2]; subject 20012078): 0
SARA score: Stance ([2]; subject 20012078): 0
SARA score: Fast alternating hand movements—left ([2]; subject 20012079): 0
SARA score: Fast alternating hand movements—right ([2]; subject 20012079): 0
SARA score: Finger chase—left ([2]; subject 20012079): 0.5
SARA score: Finger chase—right ([2]; subject 20012079): 0
SARA score: Gait ([2]; subject 20012079): 2
SARA score: Heel–shin slide—left ([2]; subject 20012079): 0
SARA score: Heel–shin slide—right ([2]; subject 20012079): 0
SARA score: Nose–finger—left ([2]; subject 20012079): 0
SARA score: Nose–finger—right ([2]; subject 20012079): 0
SARA score: Sitting ([2]; subject 20012079): 0
SARA score: Speech disturbance ([2]; subject 20012079): 0
SARA score: Stance ([2]; subject 20012079): 2
SARA score: Fast alternating hand movements—left ([2]; subject 20012080): 0
SARA score: Fast alternating hand movements—right ([2]; subject 20012080): 0
SARA score: Finger chase—left ([2]; subject 20012080): 0
SARA score: Finger chase—right ([2]; subject 20012080): 0
SARA score: Gait ([2]; subject 20012080): 3
SARA score: Heel–shin slide—left ([2]; subject 20012080): 0
SARA score: Heel–shin slide—right ([2]; subject 20012080): 0
SARA score: Nose–finger—left ([2]; subject 20012080): 0.5
SARA score: Nose–finger—right ([2]; subject 20012080): 0.5
SARA score: Sitting ([2]; subject 20012080): 0
SARA score: Speech disturbance ([2]; subject 20012080): 0
SARA score: Stance ([2]; subject 20012080): 2
SARA score: Fast alternating hand movements—left ([2]; subject 20012081): 0
SARA score: Fast alternating hand movements—right ([2]; subject 20012081): 0
SARA score: Finger chase—left ([2]; subject 20012081): 0
SARA score: Finger chase—right ([2]; subject 20012081): 0.5
SARA score: Gait ([2]; subject 20012081): 1
SARA score: Heel–shin slide—left ([2]; subject 20012081): 0
SARA score: Heel–shin slide—right ([2]; subject 20012081): 0
SARA score: Nose–finger—left ([2]; subject 20012081): 0
SARA score: Nose–finger—right ([2]; subject 20012081): 0
SARA score: Sitting ([2]; subject 20012081): 0
SARA score: Speech disturbance ([2]; subject 20012081): 0
SARA score: Stance ([2]; subject 20012081): 0
Cumulative SARA Score ([2]; subject 20012082): 2
SARA score: Fast alternating hand movements—left ([2]; subject 20012082): 0
SARA score: Fast alternating hand movements—right ([2]; subject 20012082): 0
SARA score: Finger chase—left ([2]; subject 20012082): 0
SARA score: Finger chase—right ([2]; subject 20012082): 0
SARA score: Gait ([2]; subject 20012082): 1
SARA score: Heel–shin slide—left ([2]; subject 20012082): 0
SARA score: Heel–shin slide—right ([2]; subject 20012082): 0
SARA score: Nose–finger—left ([2]; subject 20012082): 0
SARA score: Nose–finger—right ([2]; subject 20012082): 0
SARA score: Sitting ([2]; subject 20012082): 0
SARA score: Speech disturbance ([2]; subject 20012082): 0
SARA score: Stance ([2]; subject 20012082): 1
